Assay [1] addresses T1, recombinant human ALK5 (TGF-βR1) protein (Homo sapiens, UniProt P36897).
T1 construct: purchased Life Technologies PR9075A
T1 sequence (P36897 34-503): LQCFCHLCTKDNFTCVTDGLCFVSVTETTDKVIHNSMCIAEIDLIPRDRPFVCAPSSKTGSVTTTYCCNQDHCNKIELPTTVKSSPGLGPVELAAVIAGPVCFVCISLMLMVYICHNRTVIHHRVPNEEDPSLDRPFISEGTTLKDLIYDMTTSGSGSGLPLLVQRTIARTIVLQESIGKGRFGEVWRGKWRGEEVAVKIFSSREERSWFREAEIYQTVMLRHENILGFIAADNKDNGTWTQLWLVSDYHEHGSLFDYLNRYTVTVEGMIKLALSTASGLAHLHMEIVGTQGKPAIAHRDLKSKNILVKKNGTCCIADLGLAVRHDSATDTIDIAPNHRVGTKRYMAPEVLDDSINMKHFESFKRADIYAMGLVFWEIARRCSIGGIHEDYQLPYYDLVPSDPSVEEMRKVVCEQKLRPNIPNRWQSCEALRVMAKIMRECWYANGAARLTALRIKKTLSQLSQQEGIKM
Put plainly: Biochemical ALK5 (TGF-βR1) assay to measure pKi (LANCE Ultra ULight kinase assay). The note with it: apparent pKi from pIC50 by Cheng-Prusoff, read-out: ALK5 pKi (converted). An outline of the steps: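 Dose range 10 μM–25 pM; enzyme + compound 60 min RT; ATP added (5× stock 125 μM, 2 mM DTT); 60 min 37 °C; stop with EDTA + Eu anti-phospho-Topo IIα Thr1342 Ab; TR-FRET ex 320/340, em 665 nm. 4-param pIC50 → pKi (Cheng-Prusoff).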

Assay [2] has as its system TGF-β-stimulated SMAD3 phosphorylation in BEAS-2B cells. Put plainly: Cellular ALK5 potency assay, inhibition of TGF-β stimulated pSMAD3 formation in BEAS-2B cells. It counts as cell-based. The settings on record: Homo sapiens; inhibition of TGF-β stimulated pSMAD3 formation, BEAS-2B cells; read-out: BEAS2B pIC50 (converted). In short, it runs like this:
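AlphaLISA pSMAD3 read-out, beads incubated overnight. Human BEAS-2B cells: 1 h compound preincubation (37 °C, 5% CO2), then 30 min TGF-β at 10 ng/mL final, immediate lysis. Values are pIC50 relative to stimulated, compound-free baseline.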

Bounds are passed on as bounds.

Consider `Cc1cccc(-c2[nH]cnc2-c2ccc3ncc(-c4csc(C(=O)O[C@@H]5CCN(C)C5)c4)cc3c2)n1` [Compound 750, [(3R)-1-methylpyrrolidin-3-yl] 4-[6-[5-(6-methyl-2-pyridyl)-1H-imidazol-4-yl]-3-quinolyl]thiophene-2-carboxylate], for which the Ki in assay [1] was 0.0398 to 0.316 nM. Moreover, the IC50 in assay [2] is less than 20 nM.
Taken in the same sequence, the figures for `Cc1nc(-c2n[nH]cc2-c2ccc3ncc(-c4cc5n(n4)CCN5)cc3n2)ccc1F` [Compound 574, 7-(2,3-dihydro-1H-imidazo[1,2-b]pyrazol-6-yl)-2-[3-(5-fluoro-6-methyl-2-pyridyl)-1H-pyrazol-4-yl]-1,5-naphthyridine] were less than 0.0316 nM and less than 20 nM.
Taken in the same sequence, the figures for `Cc1cccc(-c2[nH]cnc2-c2ccc3ncc(-c4ccc(C(=O)OCC5CNC5)cn4)cc3c2)n1` [Compound 1103, azetidin-3-ylmethyl 6-[6-[5-(6-methyl-2-pyridyl)-1H-imidazol-4-yl]-3-quinolyl]pyridine-3-carboxylate] were less than 0.0316 nM and 25.1 to 158 nM.
Taken in the same sequence, the figures for `Cc1cccc(-c2[nH]cnc2-c2ccc3ncc(-c4csc(C(=O)OCCN5C[C@@H](C)N[C@@H](C)C5)c4)cc3c2)n1` [Compound 1222, 2-[(3S,5R)-3,5-dimethylpiperazin-1-yl]ethyl 4-[6-[5-(6-methyl-2-pyridyl)-1H-imidazol-4-yl]-3-quinolyl]thiophene-2-carboxylate] were 0.0398 to 0.316 nM and 25.1 to 158 nM.
With `Cc1cccc(-c2n[nH]cc2-c2ccc3nccc(NC(=O)CCCN4CCOCC4)c3n2)n1` [Compound 842, N-[6-[3-(6-methyl-2-pyridyl)-1H-pyrazol-4-yl]-1,5-naphthyridin-4-yl]-4-morpholino-butanamide], the Ki in assay [1] was 0.398 to 3.16 nM. The IC50 in assay [2] is 25.1 to 158 nM.
Consider `Cc1cccc(-c2[nH]cnc2-c2ccc3ncc(C4CCC(N)CC4)cc3c2)n1` (centres unmarked) [Compound 142, 4-[6-[5-(6-methyl-2-pyridyl)-1H-imidazol-4-yl]-3-quinolyl]cyclohexanamine], for which the Ki in assay [1] was 0.398 to 3.16 nM. Besides, the IC50 in assay [2] is 25.1 to 158 nM.
As for `Cc1cccc(-c2n[nH]cc2-c2ccc3ncc(-c4cn(Cc5c[nH]cn5)nn4)cc3n2)n1` [Compound 101, 7-[1-(1H-imidazol-4-ylmethyl)triazol-4-yl]-2-[3-(6-methyl-2-pyridyl)-1H-pyrazol-4-yl]-1,5-naphthyridine], in assay [1], the Ki was less than 0.0316 nM. Further, the IC50 in assay [2] is 200 to 1260 nM.
As to `Cc1cccc(-c2n[nH]cc2-c2ccc3ncc(-c4cccs4)cc3n2)n1` [Compound 80, 2-[3-(6-methyl-2-pyridyl)-1H-pyrazol-4-yl]-7-(2-thienyl)-1,5-naphthyridine], in assay [1], the Ki is 0.0398 to 0.316 nM. Besides, in assay [2], the IC50 was 25.1 to 158 nM.
Taken in the same sequence, the figures for `Cc1cccc(-c2n[nH]cc2-c2ccc3ncc(-c4[nH]nc5c4CNCC5)cc3n2)n1` [Compound 489, 2-[3-(6-methyl-2-pyridyl)-1H-pyrazol-4-yl]-7-(4,5,6,7-tetrahydro-2H-pyrazolo[4,3-c]pyridin-3-yl)-1,5-naphthyridine] were 0.0398 to 0.316 nM and 200 to 1260 nM.
Taken in the same sequence, the figures for `Cc1cccc(-c2n[nH]cc2-c2ccc3ncc(-c4[nH]nc5c4CCNC5)cc3n2)n1` [Compound 622, 2-[3-(6-methyl-2-pyridyl)-1H-pyrazol-4-yl]-7-(4,5,6,7-tetrahydro-2H-pyrazolo[3,4-c]pyridin-3-yl)-1,5-naphthyridine] were 0.0398 to 0.316 nM and 200 to 1260 nM.
Taken in the same sequence, the figures for `Cc1cccc(-c2[nH]cnc2-c2ccc3ncc(C4=CC[C@@H](N)CC4)cc3c2)n1` [Compound 171, (1S)-4-[6-[5-(6-methyl-2-pyridyl)-1H-imidazol-4-yl]-3-quinolyl]cyclohex-3-en-1-amine] were less than 0.0316 nM and less than 20 nM.
On to `Cc1cccc(-c2[nH]cnc2-c2ccc3ncc(-c4cccc5c4CNC5)cc3c2)n1` [Compound 636, 3-isoindolin-4-yl-6-[5-(6-methyl-2-pyridyl)-1H-imidazol-4-yl]quinoline], for which the Ki in assay [1] was 0.0398 to 0.316 nM. In addition, the IC50 in assay [2] is 25.1 to 158 nM.
Taken in the same sequence, the figures for `Cc1nc(-c2n[nH]cc2-c2ccc3ncc(-c4cnn(C[C@H]5CCC[C@H](N)C5)c4)cc3n2)ccc1F` (racemic) [Compound 395, rac-(1S,3S)-3-[[4-[6-[3-(5-fluoro-6-methyl-2-pyridyl)-1H-pyrazol-4-yl]-1,5-naphthyridin-3-yl]pyrazol-1-yl]methyl]cyclohexanamine] were less than 0.0316 nM and 25.1 to 158 nM.
Taken in the same sequence, the figures for `Cc1cccc(-c2n[nH]cc2-c2ccc3ncc(N4C[C@H]5C[C@@H]4CN5C)cc3n2)n1` (racemic) [Compound 437, 2-[3-(6-methyl-2-pyridyl)-1H-pyrazol-4-yl]-7-[rac-(1R,4R)-5-methyl-2,5-diazabicyclo[2.2.1]heptan-2-yl]-1,5-naphthyridine] were 0.398 to 3.16 nM and 25.1 to 158 nM.
Taken in the same sequence, the figures for `CNCCN1CCCN(c2cnc3ccc(-c4c[nH]nc4-c4cccc(C)n4)nc3c2)CC1` [Compound 311, N-methyl-2-[4-[6-[3-(6-methyl-2-pyridyl)-1H-pyrazol-4-yl]-1,5-naphthyridin-3-yl]-1,4-diazepan-1-yl]ethanamine] were 0.0398 to 0.316 nM and 200 to 1260 nM.
Turning to `Cc1cccc(-c2[nH]cnc2-c2ccc3ncc(C4=CCN(C(=O)C5CNC5)CC4)cc3c2)n1` [Compound 1036, azetidin-3-yl-[4-[6-[5-(6-methyl-2-pyridyl)-1H-imidazol-4-yl]-3-quinolyl]-3,6-dihydro-2H-pyridin-1-yl]methanone], the Ki in assay [1] was 0.0398 to 0.316 nM. For the same compound, the IC50 in assay [2] is 200 to 1260 nM.
Taken in the same sequence, the figures for `Cc1cccc(-c2n[nH]cc2-c2ccc3ncc(-c4ncn5c4NCC5)cc3n2)n1` [Compound 445, 7-(2,3-dihydro-1H-imidazo[1,5-a]imidazol-7-yl)-2-[3-(6-methyl-2-pyridyl)-1H-pyrazol-4-yl]-1,5-naphthyridine] were 0.0398 to 0.316 nM and 25.1 to 158 nM.
Take `Cc1cccc(-c2n[nH]cc2-c2ccc3ncc(N[C@@]45C[C@@H]6C[C@@H](C[C@@](N)(C6)C4)C5)cc3n2)n1` [Compound 297, rac-(5S,7R)-N1-[6-[3-(6-methyl-2-pyridyl)-1H-pyrazol-4-yl]-1,5-naphthyridin-3-yl]adamantane-1,3-diamine]: the Ki in assay [1] was 3.98 to 31.6 nM. For the same compound, the IC50 in assay [2] was 200 to 1260 nM.
Taken in the same sequence, the figures for `Cc1cccc(-c2[nH]cnc2-c2ccc3ncc(-c4ccc5c(c4)CC[C@H]5N)cc3c2)n1` [Compound 1154, (1R)-5-[6-[5-(6-methyl-2-pyridyl)-1H-imidazol-4-yl]-3-quinolyl]indan-1-amine] were less than 0.0316 nM and less than 20 nM.
Taken in the same sequence, the figures for `Cc1cccc(-c2nnn(Cc3ccccc3)c2-c2ccc3ncc(-c4cn[nH]c4)cc3c2)n1` [Compound 254, 6-[3-benzyl-5-(6-methyl-2-pyridyl)triazol-4-yl]-3-(1H-pyrazol-4-yl)quinoline] were 0.0398 to 0.316 nM and 25.1 to 158 nM.
Taken in the same sequence, the figures for `Cc1cccc(-c2[nH]ncc2-c2ccc3ncc(C(=O)O[C@H]4CCN(C)C4)cc3n2)n1` [Compound 563, [(3S)-1-methylpyrrolidin-3-yl]6-[5-(6-methyl-2-pyridyl)-1H-pyrazol-4-yl]-1,5-naphthyridine-3-carboxylate] were 0.0398 to 0.316 nM and 25.1 to 158 nM.
`Cc1cccc(-c2[nH]ncc2-c2ccc3ncc(C(=O)NN)cc3n2)n1` [Compound 247, 6-[5-(6-methyl-2-pyridyl)-1H-pyrazol-4-yl]-1,5-naphthyridine-3-carbohydrazide]: the Ki in assay [1] is 0.0398 to 0.316 nM. For the same compound, the IC50 in assay [2] was 25.1 to 158 nM.
As to `Cc1nc(-c2nc3ccccn3c2-c2ccc3ncc(N4CCC(N(C)C)C4)cc3n2)ccc1F` (racemic) [Compound 347, rac-(3S)-1-[6-[2-(5-fluoro-6-methyl-2-pyridyl)imidazo[1,2-a]pyridin-3-yl]-1,5-naphthyridin-3-yl]-N,N-dimethyl-pyrrolidin-3-amine], the Ki in assay [1] is 0.0398 to 0.316 nM. Besides, the IC50 in assay [2] was 25.1 to 158 nM.
Taken in the same sequence, the figures for `Cc1cccc(-c2[nH]ncc2-c2ccc3ncc(C(=O)O[C@@H]4CCNC4)cc3n2)n1` [Compound 195, [(3R)-pyrrolidin-3-yl] 6-[5-(6-methyl-2-pyridyl)-1H-pyrazol-4-yl]-1,5-naphthyridine-3-carboxylate] were 0.398 to 3.16 nM and 25.1 to 158 nM.
Taken in the same sequence, the figures for `CNCCn1cc(-c2cnc3ccc(-c4c(-c5cccc(C)n5)nn5c4CNCC5)nc3c2)cn1` [Compound 64, N-methyl-2-[4-[6-[2-(6-methyl-2-pyridyl)-4,5,6,7-tetrahydropyrazolo[1,5-a]pyrazin-3-yl]-1,5-naphthyridin-3-yl]pyrazol-1-yl]ethanamine] were 0.0398 to 0.316 nM and 200 to 1260 nM.

(Values after US11590116B2 (THERAVANCE BIOPHARMA R&D IP, LLC, priority 2019, dated 2023).)
